Measurements published in paper PMC10126473 (Frontiers in Pharmacology, 2023).

Experiments:
[1] = Metabolic stability and biotransformation in liver microsomes; details: for Liver Vmax: in vitro
Method: The incubation was carried out at 37°C for 15, 30, and 60 min. The reaction in plasma or liver microsomes was quenched by adding 200 μL of cold acetonitrile (containing 100 ng/mL tolbutamide as internal standard).
The mc was the microsome concentration used in the incubation (0.5 mg/mL). The substrate disappearance half-life (t1/2) was estimated by regression analysis of the semi-logarithmic (ln Conc vs. time) plots. […] The Vmax, in vitro,app, PDN-total and Km for PDN depletion in liver microsomes were estimated by the Michaelis-Menten model using GraphPad Prism version 8.

[2] = tested on: SARS-CoV-2; parameters: method as in Huang et al., 2022; details: cytopathic effect assay and cytotoxicity counter screen; ref Huang et al., 2022; cited from earlier work
[3] = Metabolic stability in plasma; details: for Plasma k: mouse, in vitro
[4] = Metabolic stability in plasma; details: for Plasma k: human, in vitro
Method: The incubation was carried out at 37°C for 15, 30, and 60 min. The reaction in plasma or liver microsomes was quenched by adding 200 μL of cold acetonitrile (containing 100 ng/mL tolbutamide as internal standard). After a 20 min centrifugation at 3000 rpm, 4°C, the supernatant was transferred to an analysis plate and analyzed by UPLC-MS/MS as described in Section 2.4.2.
The substrate disappearance half-life (t1/2) was estimated by regression analysis of the semi-logarithmic (ln Conc vs. time) plots.

O=C(Nc1ccc([N+](=O)[O-])cc1Cl)c1cc(Cl)ccc1OC(=O)N1CCNCC1 [PDN]
Liver Vmax ([1]; conversion to Nc, human): 0.0002 mg/s/mg microsomes
Gut Vmax ([1]; conversion to Nc, human, in vitro (in vitro liver parameters)): 0.00024 mg/s/mg microsomes
Liver Vmax ([1]; conversion to Others, human): 0.0106 mg/s/mg microsomes
Vmax in vitro,app, PDN-total ([1]; human liver microsomes): 0.365 ± 0.187 nmol/min/mg
Km ([1]; human, pH 7.4): 33.8 ± 29.1 µM
in vitro activity against SARS-CoV-2 [2]: showed in vitro activity against SARS-CoV-2
Plasma k ([3]; conversion to Nc): 0.0058 s⁻¹
Plasma k ([3]; conversion to Others): 0.0062 s⁻¹
kin vitro,app, PDN-total (total depletion of PDN) ([3]; mouse plasma, 37°C): 0.0120 ± 0.0015 min⁻¹
Plasma k ([4]; conversion to Nc): 0.00026 s⁻¹
Plasma k ([4]; conversion to Others): 0.0022 s⁻¹
kin vitro,app, PDN-total (total depletion of PDN) ([4]; human plasma, 37°C): 0.0025 ± 0.0013 min⁻¹
